Measured values taken from patent publication US8084459B2, “Substituted quinazolinones for treating neurological conditions” (Prana Biotechnology Ltd, priority 2004, dated 2011).

Tests used:
Aβ 1-42 = target: T1, Aβ 1-42 (Homo sapiens, UniProt P05067); test: Assay 1 Fluorometric H2O2 assay (peroxide); type: biochemical; settings: inhibition of H2O2 generation by Aβ with copper
T1 construct: The reaction solutions contained Aβ 1-42 at concentrations
Description: Assay 1. Fluorometric H2O2 Assay
A fluorometric assay was used to test the ability of a test compound to inhibit hydrogen peroxide generation by Aβ in the presence of copper based on dichlorofluoroscein diacetate (DCF; Molecular Probes, Eugene Oreg.). The DCF solution (5 mM) in 100% dimethyl sulphoxide (previously purged with argon for 1 hr at 20° C.) was deacetylated in the presence of 0.025M NaOH for 30 min and neutralised at pH 7.4 to a final concentration of 1 mM. Horseradish peroxidase (HRP) stock solution was prepared to 1 μM at pH 7.4. The reactions were carried out in PBS, pH 7.4 in a 96 well plate (total volume=250 μl/well). The reaction solutions contained Aβ 1-42 at concentrations in the range of 50 nM to 1 μM, copper-glycine chelate (Cu-Gly), was prepared by adding CuCl2 to glycine in the ratio of 1:6 and added to the Aβ in the proportion 2Cu-Gly:1Aβ), reducing agents including dopamine (5 μM) or ascorbic acid, deacetylated DCF 100 μM, and HRP, 0.1 μM. 1-10 μM EDTA or another chelator may also be present as a control for free copper, but was not required for the assay to function. The reaction mixture was incubated at 37 C for 60 min. Catalase (4000 units/ml) and H2O2 (1-2.5 μM) standards in PBS pH 7.4 may be included as positive controls. Fluorescence was recorded using a plate reader with excitation and emission filters at […] respectively. H2O2 concentration may be established by comparing fluorescence with the H2O2 standards. Inhibition of Aβ H2O2 production was assayed by including a given concentration of test compound(s) in the test wells.

[1] = Assay 3(d) test compound cytotoxicity (MTS); type: cell-based; settings: BL6Jx129sv, mouse, primary cortical neuronal cultures, cortical neurons; for viability at 4 days, 10 µM: read-out: Assay 3(d) Cytotoxicity (% viable at 10 uM); for viability at 4 days, 1 µM: read-out: Assay 3(d) Cytotoxicity (% viable at 1 uM)
Description: (§1) Primary Cortical Neuronal Cultures
(§2) Cortical cultures were prepared as previously described (White et al., 1998). Embryonic day 14 BL6Jx129sv mouse cortices were removed, dissected free of meninges and dissociated in 0.025% (wt/vol) trypsin. Dissociated cells were plated in 48 well culture plates at a density of 2×10^6 cells/mL in MEM with 25% (vol/vol) FCS and 5% (vol/vol) HS and incubated at 37° C., 2 hrs. Media was then replaced with Neurobasal media (Invitrogen Life Technologies) and B27 supplements (Invitrogen Life Technologies). Cultures were maintained at 37° C. in 5% CO2. Prior to experimentation, the culture medium was replaced with Neurobasal media and B27 minus antioxidants (Invitrogen Life Technologies).
(a) MTS Assay for Cell Viability
Cell viability is determined using the MTS assay. Culture medium is replaced with fresh neurobasal medium plus B27 supplements minus antioxidants. 1/10 volume MTS solution (Cell Titre 96 Aqueous One, Promega Corporation) and incubated at 37° C., 2 hrs. 200 microlitre aliquots are measured with a spectrophotometer at 560 nm.
(d) Assay for Test Compound Cytoxicity
Neuronal cortical cells were cultured for five days as per Assay 2 in NB media and B27 supplement.
On day six the test compounds were added to the neuronal cell cultures in NB media and B27 supplement minus antioxidants.
Test compounds were dissolved in 100% DMSO to a concentration of 2.5 mM (10 mM if excess compound was weighed out per vial—then diluted to 2.5 mM). 2.5 mM stock solution was serially diluted 1 in 10 to give working solutions of 250 uM, 25 uM, 2.5 uM. Test compounds were not added directly to cells, instead they were added to a 48 well ‘Drug Plate’ as comprised below:
(§3) Preparation of “Drug Plate”:
• Well 1: 576 ul NB+B27 (no antioxidant)*+24 ul 2.5 uM test compound • Well 2: 576 ul NB+B27 (no antioxidant)+24 ul 25 uM test compound • Well 3: 576 ul NB+B27 (no antioxidant)+24 ul 250 uM test compound • Well 4: 576 ul NB+B27 (no antioxidant)+24 ul 2.5 uM test compound • Well 5: 576 ul NB+B27 (no antioxidant)+24 ul 25 uM test compound • Well 6: 576 ul NB+B27 (no antioxidant)+24 ul 250 uM test compound • Well 7: 576 ul NB+B27 (no antioxidant)+24 ul test compound diluent** • Well 8: 600 ul NB+B27 (no antioxidant)
The Drug Plate was incubated at 37° C. for 15 mins. 200 ul of each well was added in triplicate to the corresponding cell plate. The cell plate was incubated at 37° C., for 4 days, (2 compounds are tested on each plate of cells).
* NB media and B27 (no antioxidants),
** PBT diluent 10% DMSO in NB+B27 (no antioxidants)
On completion of the assay, 1/10 volume MTS was added per well of plate (ie 25 ul/250 ul). The plates were incubated at 37° C. for 2 hrs, and then absorbance was read at 560 nm.

[2] = test system: Aβ1-42 toxicity in neuronal cortical cells; test: Assay 3(c) Aβ neurotoxicity and neuroprotection (MTS); type: cell-based, mouse; settings: 20 uM Aβ1-42, cortical neurons, 4 days
Description: as §1, §2
(c) Assay for Aβ Neurotoxicity and Aβ Neuroprotection
Neuronal cortical cells were cultured for five days as per Assay 2. On day six the neurobasal (NB) media (Invitrogen Life Technologies) and B27 supplement (Invitrogen Life Technologies) were replaced with NB media and B27 supplement (no antioxidants). On day six, test compounds were individually added to the neuronal cell cultures:
The test compounds were dissolved in 100% DMSO to a concentration of 2.5 mM (10 mM if excess compound was weighed out per vial—then diluted to 2.5 mM). 2.5 mM stock solution was serially diluted 1 in 10 to give working solutions of 250 uM, 25 uM, 2.5 uM.
Aβ was initially dissolved in 20 mM NaOH to a concentration of 1 mM and sonicated for 5 minutes. The peptide was then diluted in H2O and 10×PBS to a final concentration of 200 uM Aβ in 1× PBS. The peptide was again sonicated for 5 minutes and then spun at 14000 rpm for 5 min and transferred to a fresh tube.
The test compounds were dissolved in 100% DMSO to a concentration of 2.5 mM (10 mM if excess compound was weighed out per vial—then diluted to 2.5 mM). 2.5 mM stock solution was serially diluted 1 in 10 [in NB media and B27 (no antioxidants)] to give working solutions of 250 uM, 25 uM, 2.5 uM. Test compounds were not added directly to cells, instead they were added to a 48 well ‘Drug Plate’ as comprised below:
as §3
Well 1: 515 ul NB+B27 (no antioxidant)*+24 ul 25 uM test compound+60 ul Aβ diluent**
Well 2: 515 ul NB+B27 (no antioxidant)+24 ul 250 uM test compound+60 ul Aβ diluent
Well 3: 515 ul NB+B27 (no antioxidant)+24 ul test compound diluent***+60 ul Aβ1-42
Well 4: 515 ul NB+B27 (no antioxidant)+24 ul 2.5 uM test compound+60 ul Aβ1-42
Well 5: 515 ul NB+B27 (no antioxidant)+24 ul 25 uM test compound+60 ul Aβ1-42
Well 6: 515 ul NB+B27 (no antioxidant)+24 ul 250 uM test compound+60 ul Aβ1-42 diluent
Well 7: 515 ul NB+B27 (no antioxidant)+24 ul test compound diluent+60 ul Aβ1-42 diluent
Well 8: 600 ul NB+B27 (no antioxidant)
The Drug Plate was incubated at 37° C. for 15 mins. 200 ul of each well was added in triplicate to the corresponding cell plate. The cell plate was incubated at 37 C, for 4 days.
* NB media+B27 (no antioxidants)
** Aβ diluent 2 mM NaOH, 1×PBS
*** PBT diluent 10% DMSO in NB+B27 (no antioxidant)
On the 4th day after treating the cells the assay is completed by adding MTS to the cells.

[3] = Assay 16 mouse plasma levels of test compounds; type: in vivo; settings: highest level found in mice (Up to); oral dosing 30 mg/kg described for PB 1075-1077
Description: Assay 16. Determination of Mouse Plasma Levels of Test Compounds PB 1075
(§4) Oral administration of PB 1075 at 30 mg/kg, as a suspension in Na-Carboxymethyl Cellulose (CMC) was administered by oral gavage to four mice. Two mice were sacrificed 30 minutes after administration and two mice were sacrificed 60 minutes after administration. Blood was obtained by cardiac puncture and plasma separated by centrifugation.
The concentration of PB 1075 was determined by LC/MS using the triple quadrupole instrument. The mobile phase consisted of an acetonitrile (ACN)/water gradient (containing 0.05% Formic acid) and the column was a Phenomenex Lunea 5 um C8 (50×2 mm) column.
The supplied acute toxicity mouse plasma samples were directly injected following a protein precipitation with ACN. The analytical method in plasma was linear in the range of 10 to 10,000 ng/ml (R^2=0.994). Recovery of PB 1075 from plasma was ˜100%.
as §4, with “1076” for “1075”
The concentration of PB 1076 was determined by LC/MS using the triple quadrupole instrument. The mobile phase consisted of an acetonitrile (ACN)/water gradient (containing 0.05% Formic acid) and the column was a Phenomenex Luna 5 μM C8 (50×2 mm) column.
The mouse plasma samples were directly injected following a protein precipitation with ACN. The analytical method in plasma was linear in the range of 500 to 10,000 ng/ml (R^2=0.999). Recovery of PB 1076 from plasma was ˜85%.
as §4, with “1077” for “1075”
The concentration of PB 1077 was determined by LC/MS using the triple quadrupole instrument. The mobile phase consisted of an acetonitrile (ACN)/water gradient (containing 0.05% Formic acid) and the column was a Phenomenex Luna 5 μM C8 (50×2 mm) column.
The mouse plasma samples were directly injected following a protein precipitation with ACN. The analytical method in plasma was linear in the range of 5 to 5,000 ng/ml (R^2=0.999). Recovery of PB 1077 from plasma was ˜92%.

T1 sequence (P05067 672-713 limits assumed): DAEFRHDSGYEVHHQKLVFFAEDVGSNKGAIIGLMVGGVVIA

IC50 (Aβ 1-42)	Assay 16 Mice plasma concentration [3]	Compound	viability at 4 days, 10 µM [1]	Assay 3(c) Neuroprotection (% inhibition of Abeta toxicity) [2]	viability at 4 days, 1 µM [1]
0.44 µM	–	O=c1c2c(Cl)cc(Cl)c(O)c2ncn1N1CCOCC1 [Compound 1080]	70%	15%	–
0.55 µM	Up to 207 ng/mL	CN1CCN(n2cnc3c(O)c(Cl)cc(Cl)c3c2=O)CC1 [Compound 1081]	–	7%	–
1.52 µM	–	O=c1c2c(Cl)cc(Cl)c(O)c2ncn1-c1ccc(Cl)cn1 [Compound 1087]	58%	11%	94%
0.84 µM	–	CCn1nccc1-n1cnc2c(O)c(Cl)cc(Cl)c2c1=O [Compound 1088]	94%	3%	–
0.78 µM	–	Cc1ccc(-n2cnc3c(O)c(Cl)cc(Cl)c3c2=O)nc1 [Compound 1089]	83%	13%	96%
0.46 µM	–	O=c1c2c(Cl)cc(Cl)c(O)c2ncn1CCc1ccccn1 [Compound 1091]	92%	−8%	100%
–	–	O=c1c2c(Cl)cc(Cl)c(O)c2ncn1CC1CCNCC1 [Compound 1094]	96%	1%	97%
